Data published in ChEMBL document CHEMBL3885881, “DrugMatrix”.

Species on record: Rattus norvegicus
Test: DrugMatrix - Regimen: Daily Repeat
Assay type: toxicity, organism-based, Sprague-Dawley
Parameters: regimen Daily Repeat, gender Male, age 6-8 weeks
Settings: in vivo, iv, 50 mg/kg, dose level Low, vehicle 100 % SALINE; for ABSOLUTE BASOPHIL / ABSOLUTE EOSINOPHIL / ABSOLUTE LYMPHOCYTE / ABSOLUTE MONOCYTE / ABSOLUTE SEGMENTED NEUTROPHIL / BASOPHIL / EOSINOPHIL / ERYTHROCYTE COUNT / HEMATOCRIT / HEMOGLOBIN / LEUKOCYTE COUNT / LYMPHOCYTE / MEAN CORPUSCULAR HEMOGLOBIN / MEAN CORPUSCULAR HEMOGLOBIN CONCENTRATION / MEAN CORPUSCULAR VOLUME / MONOCYTE / NEUTROPHIL / NUCLEATED RED BLOOD CELLS / PLATELET COUNT: tissue Blood; for ALANINE AMINOTRANSFERASE / ALBUMIN / ALKALINE PHOSPHATASE / ASPARTATE AMINOTRANSFERASE / BLOOD UREA NITROGEN / CARBON DIOXIDE / CHLORIDE / CHOLESTEROL / CREATINE PHOSPHOKINASE / CREATININE / GLUCOSE / LACTATE DEHYDROGENASE / LIPASE / PHOSPHORUS / POTASSIUM / SODIUM / TOTAL BILIRUBIN / TOTAL PROTEIN / URIC ACID: tissue Plasma

## CC1(C)S[C@@H]2[C@H](NC(=O)Cc3ccccc3)C(=O)N2[C@H]1C(=O)O [PENICILLIN G]
72 h, time 3 day
  ABSOLUTE BASOPHIL: 0 CELLS/uL
  ABSOLUTE EOSINOPHIL: 74.67 CELLS/uL
  ABSOLUTE LYMPHOCYTE: 13141.67 CELLS/uL
  ABSOLUTE MONOCYTE: 398.33 CELLS/uL
  ABSOLUTE SEGMENTED NEUTROPHIL: 1318.67 CELLS/uL
  BASOPHIL: 0%
  EOSINOPHIL: 0.67%
  ERYTHROCYTE COUNT: 5.85 x10E6/uL
  HEMATOCRIT: 37.47%
  HEMOGLOBIN: 13.8 G/DL
  LEUKOCYTE COUNT: 14.93 x10E3/uL
  LYMPHOCYTE: 87.67%
  MEAN CORPUSCULAR HEMOGLOBIN: 23.6 pg
  MEAN CORPUSCULAR HEMOGLOBIN CONCENTRATION: 36.87 G/DL
  MEAN CORPUSCULAR VOLUME: 64.07 fL
  MONOCYTE: 2.67%
  NEUTROPHIL: 9%
  NUCLEATED RED BLOOD CELLS: 0 /100WBC
  PLATELET COUNT: 1362 x10E3/uL
  ALANINE AMINOTRANSFERASE: 56.33 u/L
  ALBUMIN: 4.37 G/DL
  ALKALINE PHOSPHATASE: 354 u/L
  ASPARTATE AMINOTRANSFERASE: 76.67 u/L
  BLOOD UREA NITROGEN: 13.33 mg/dL
  CARBON DIOXIDE: 24.33 mmol/L
  CHLORIDE: 103.67 MEQ/L
  CHOLESTEROL: 82.67 mg/dL
  CREATINE PHOSPHOKINASE: 122 u/L
  CREATININE: 0.21 mg/dL
  GLUCOSE: 172 mg/dL
  LACTATE DEHYDROGENASE: 124 u/L
  LIPASE: 10 u/L
  PHOSPHORUS: 12.63 mg/dL
  POTASSIUM: 6.23 MEQ/L
  SODIUM: 146.33 MEQ/L
  TOTAL BILIRUBIN: 0.23 mg/dL
  TOTAL PROTEIN: 6.07 G/DL
  URIC ACID: 1.57 mg/dL
120 h, time 5 day
  ABSOLUTE BASOPHIL: 0 CELLS/uL
  ABSOLUTE EOSINOPHIL: 0 CELLS/uL
  ABSOLUTE LYMPHOCYTE: 11488.33 CELLS/uL
  ABSOLUTE MONOCYTE: 166 CELLS/uL
  ABSOLUTE SEGMENTED NEUTROPHIL: 512.33 CELLS/uL
  BASOPHIL: 0%
  EOSINOPHIL: 0%
  ERYTHROCYTE COUNT: 5.58 x10E6/uL
  HEMATOCRIT: 36.13%
  HEMOGLOBIN: 13.43 G/DL
  LEUKOCYTE COUNT: 12.17 x10E3/uL
  LYMPHOCYTE: 94.33%
  MEAN CORPUSCULAR HEMOGLOBIN: 24.07 pg
  MEAN CORPUSCULAR HEMOGLOBIN CONCENTRATION: 37.17 G/DL
  MEAN CORPUSCULAR VOLUME: 64.8 fL
  MONOCYTE: 1.33%
  NEUTROPHIL: 4.33%
  NUCLEATED RED BLOOD CELLS: 0 /100WBC
  PLATELET COUNT: 1442 x10E3/uL
  ALANINE AMINOTRANSFERASE: 49.33 u/L
  ALBUMIN: 4.27 G/DL
  ALKALINE PHOSPHATASE: 371 u/L
  ASPARTATE AMINOTRANSFERASE: 81.33 u/L
  BLOOD UREA NITROGEN: 15.33 mg/dL
  CARBON DIOXIDE: 21.67 mmol/L
  CHLORIDE: 107 MEQ/L
  CHOLESTEROL: 79.33 mg/dL
  CREATINE PHOSPHOKINASE: 245.67 u/L
  CREATININE: 0.42 mg/dL
  GLUCOSE: 151.67 mg/dL
  LACTATE DEHYDROGENASE: 117.67 u/L
  LIPASE: 11.5 u/L
  PHOSPHORUS: 12.33 mg/dL
  POTASSIUM: 6.79 MEQ/L
  SODIUM: 144.2 MEQ/L
  TOTAL BILIRUBIN: 0.23 mg/dL
  TOTAL PROTEIN: 6.07 G/DL
  URIC ACID: 2 mg/dL
